Measured values taken from ChEMBL document CHEMBL1125524, “Adenosine A1 antagonists. 2. Structure-activity relationships on diuretic activities and protective effects against acute renal failure” (J Med Chem, 1992).
pKi: −log10 of the molar value.

Columns and labels:
[1] = test system: Rattus norvegicus; experiment: Serum creatinine concentration measured after intraperitoneal administration of 1 mg/kg of compound to rats(vehicle 4.82+/-0.17); type: functional
[2] = test system: Rattus norvegicus; experiment: Serum creatinine concentration measured after intraperitoneal administration of 0.01 mg/kg of compound to rats(vehicle 4.50+/-0.24); type: functional
[3] = test system: Rattus norvegicus; experiment: Serum creatinine concentration measured after intraperitoneal administration of 0.1 mg/kg of compound to rats(vehicle 3.62+/-0.23); type: functional
[4] = test system: Rattus norvegicus; experiment: Effect on urinary excretion potassium and sodium after oral administration of 0.4 mg/kg to rats(potassium and sodium excretion in control rat is 0.267+/-0.044); type: functional, Urine
[5] = test system: Rattus norvegicus; experiment: Percent inhibition of serum creatinine by the compound given as ratio of Cr value in treated to vehicle treated ones after intraperitoneal administration of 0.01 mg/kg of compound to rats(vehicle 4.50+/-0.24); type: functional; conditions: ip
[6] = test system: Rattus norvegicus; experiment: Percent inhibition of serum creatinine by the compound given as ratio of Cr value in treated to vehicle treated ones after intraperitoneal administration of 0.1 mg/kg of compound to rats(vehicle 3.62+/-0.23); type: functional; conditions: ip
[7] = test system: Rattus norvegicus; experiment: Percent inhibition of serum creatinine by the compound given as ratio of Cr value in treated to vehicle treated ones after intraperitoneal administration of 1 mg/kg of compound to rats(vehicle 4.82+/-0.17); type: functional; conditions: ip
[8] = test system: Rattus norvegicus; experiment: Ratio of urinary excretion value (urinary volume) in treated rats to that in control rats, at a peroral dose of 0.4 mg/Kg; type: functional, Urine
[9] = test system: Rattus norvegicus; experiment: Ratio of urinary excretion value (urinary volume) in treated rats to that in control rats, at a peroral dose of 1.6 mg/Kg; type: functional, Urine
[10] = test system: Rattus norvegicus; experiment: Urea nitrogen concentration measured after intraperitoneal administration of 1 mg/kg of compound to rats(vehicle 151.5+/-7.4); type: functional
[11] = test system: Rattus norvegicus; experiment: Ratio of sodium ion/potassium ion concentration in treated rats to that in control rats, at a peroral dose of 0.4 mg/Kg; type: functional
[12] = test system: Rattus norvegicus; experiment: Ratio of sodium ion/potassium ion concentration in treated rats to that in control rats, at a peroral dose of 1.6 mg/Kg; type: functional
[13] = test system: Rattus norvegicus; experiment: Ratio of urinary excretion value (Na+ concentration) in treated rats to that in control rats, at a peroral dose of 0.4 mg/Kg; type: functional, Urine
[14] = test system: Rattus norvegicus; experiment: Ratio of urinary excretion value (Na+ concentration) in treated rats to that in control rats, at a peroral dose of 1.6 mg/Kg; type: functional, Urine
[15] = test system: Rattus norvegicus; experiment: Effect on urinary excretion potassium and sodium after oral administration of 1.6 mg/kg to rats(potassium and sodium excretion in control rat is 0.169+/-0.012); type: functional, Urine
[16] = test system: Rattus norvegicus; experiment: Oral diuretic activity was measured after oral administration of 0.4 mg/kg to rats(control volume is 1.72+/-0.31); type: functional, Urine
[17] = test system: Rattus norvegicus; experiment: Urea nitrogen concentration measured after intraperitoneal administration of 0.1 mg/kg of compound to rats(vehicle 141.3+/-8.3); type: functional
[18] = test system: Rattus norvegicus; experiment: Oral diuretic activity was measured after oral administration of 1.6 mg/kg to rats(control volume is 0.97+/-0.05); type: functional, Urine
[19] = test system: Rattus norvegicus; experiment: Urea nitrogen concentration measured after intraperitoneal administration of 0.01 mg/kg of compound to rats(vehicle 130.6+/-4.1); type: functional
[20] = test system: Rattus norvegicus; experiment: Percent inhibition of Urea nitrogen by the compound given as ratio of UN value in treated to vehicle treated ones after intraperitoneal administration of 1 mg/kg of compound to rats(vehicle 151.5+/-7.4); type: functional; conditions: ip
[21] = test system: Rattus norvegicus; experiment: Percent inhibition of Urea nitrogen by the compound given as ratio of UN value in treated to vehicle treated ones after intraperitoneal administration of 0.01 mg/kg of compound to rats(vehicle 130.6+/-4.1); type: functional; conditions: ip
[22] = test system: Rattus norvegicus; experiment: Percent inhibition of Urea nitrogen by the compound given as ratio of UN value in treated to vehicle treated ones after intraperitoneal administration of 0.1 mg/kg of compound to rats(vehicle 141.3+/-8.3); type: functional; conditions: ip
[23] = biological target: Adenosine A2 receptor (Rattus norvegicus, UniProt P29276+P30543)
[24] = test system: Rattus norvegicus; experiment: Serum creatinine concentration measured after intraperitoneal administration of 1 mg/kg of compound to rats(vehicle 5.07+/-0.33); type: functional; conditions: 1 mg/kg
[25] = test system: Rattus norvegicus; experiment: Urea nitrogen concentration measured after intraperitoneal administration of 1 mg/kg of compound to rats(vehicle 195.8+/-14.4); type: functional; conditions: 1 mg/kg
[26] = test system: Rattus norvegicus; experiment: Effect on urinary excretion potassium and sodium after oral administration of 1.6 mg/kg to rats(potassium and sodium excretion in control rat is 0.105+/-0.002); type: functional, Urine
[27] = test system: Rattus norvegicus; experiment: Ratio of urinary excretion value (urinary volume) in treated rats to that in control rats, at a peroral dose of 25 mg/Kg; type: functional, Urine
[28] = test system: Rattus norvegicus; experiment: Ratio of sodium ion/potassium ion concentration in treated rats to that in control rats, at a peroral dose of 25 mg/Kg; type: functional
[29] = test system: Rattus norvegicus; experiment: Ratio of urinary excretion value (Na+ concentration) in treated rats to that in control rats, at a peroral dose of 25 mg/Kg; type: functional, Urine
[30] = test system: Rattus norvegicus; experiment: Effect on urinary excretion potassium and sodium after oral administration of 25 mg/kg to rats(potassium and sodium excretion in control rat is 0.180+/-0.024); type: functional, Urine
[31] = test system: Rattus norvegicus; experiment: Oral diuretic activity was measured after oral administration of 25 mg/kg to rats(control volume is 1.00+/-0.09); type: functional, Urine
[32] = test system: Rattus norvegicus; experiment: Oral diuretic activity was measured after oral administration of 1.6 mg/kg to rats(control volume is 0.79+/-0.12); type: functional, Urine
[33] = test system: Rattus norvegicus; experiment: Percent inhibition of Urea nitrogen by the compound given as ratio of UN value in treated to vehicle treated ones after intraperitoneal administration of 1 mg/kg of compound to rats(vehicle 195.8+/-14.4); type: functional; conditions: Rattus norvegicus, ip
[34] = biological target: T1, Adenosine receptor A1 (Cavia porcellus, UniProt P47745)
T1 sequence (P47745 whole entry): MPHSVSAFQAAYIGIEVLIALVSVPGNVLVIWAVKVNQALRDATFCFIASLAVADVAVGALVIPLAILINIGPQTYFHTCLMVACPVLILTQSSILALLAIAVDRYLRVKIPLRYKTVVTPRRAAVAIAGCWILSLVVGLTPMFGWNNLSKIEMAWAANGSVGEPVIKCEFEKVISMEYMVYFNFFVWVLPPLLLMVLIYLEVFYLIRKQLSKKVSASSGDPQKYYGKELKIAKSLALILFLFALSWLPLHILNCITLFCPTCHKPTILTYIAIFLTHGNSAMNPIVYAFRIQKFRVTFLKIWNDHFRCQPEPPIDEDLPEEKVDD
Description: Binding affinity against adenosine A1 receptor in guinea pig forebrain membranes using N6-[3H]cyclohexyladenosine as radioligand

[35] = organism: Rattus norvegicus; experiment: animal or person; conditions: ip, read-out: Inhibition, dose 1 mg/kg, route intraperitoneal

Compound `CCn1c(=O)c2nc(C34CC5CC(CC3C5)C4)[nH]c2n(CC)c1=O` has a Cr [1] of 2.09 mg/dL, a Cr [2] of 2.82 mg/dL and a Cr [3] of 1.44 mg/dL. For the same compound, the Na [4] was 0.356 m equiv 6hr-1 100g-1, the inhibition in vivo at 0.01 mg/kg [5] was 37% and the inhibition in vivo at 0.1 mg/kg [6] was 63%. The inhibition in vivo at 1 mg/kg [7] was 57%, the T/C [8] was 1.33 and the T/C [9] was 2.99. For the same compound, the UN [10] was 65.9 mg/dL, the “Na+/K+” value [11] was 1.29 and the “Na+/K+” value [12] was 1.97. The T/C [13] was 1.33, the T/C [14] was 2.92 and the Na [15] was 0.492 m equiv 6hr-1 100g-1. The Urine volume [16] was 2.29 ml 6hr-1 100g-1, the UN [17] was 44.5 mg/dL and the Urine volume [18] was 2.9 ml 6hr-1 100g-1. For the same compound, the UN [19] was 81.7 mg/dL, the inhibition in vivo at 1 mg/kg [20] was 56% and the inhibition in vivo at 0.01 mg/kg [21] was 37%. The inhibition in vivo at 0.1 mg/kg [22] was 68% and the pKi [23] was 5.80.

For `CCCn1c(=O)c2nc(C3CC4CCC3C4)[nH]c2n(CCC)c1=O` (stereo in doubt; 19), the Cr [24] was 2.59 mg/dL, the UN [25] was 101 mg/dL and the Na [26] was 0.337 m equiv 6hr-1 100g-1. For the same compound, the T/C [9] was 3.14, the T/C [27] was 2.54 and the “Na+/K+” value [12] was 2.04. The “Na+/K+” value [28] was 1.84, the T/C [14] was 3.22 and the T/C [29] was 2.37. For the same compound, the Na [30] was 0.427 m equiv 6hr-1 100g-1, the Urine volume [31] was 2.54 ml 6hr-1 100g-1 and the Urine volume [32] was 2.48 ml 6hr-1 100g-1. The inhibition in vivo at 1 mg/kg [33] was 48%, the pKi [34] was 8.42 and the Ki [23] was 0.44 µM. It also gave an inhibition in vivo at 1 mg/kg [35] of 49%.
